{"source": "patent US7943577B2", "about": "“Alpha-fetoprotein peptides and uses thereof” (Albany Medical College, priority 2001, dated 2011)", "key": {"[1]": {"test_system": "colon cancer (Colo 205) cells", "assay": "PCNA and nuclear ERα immunoblot, Colo 205", "type": "cell-based, human", "parameters": "key to Total Nuclear Estrogen Receptor / PCNA accumulation: “+” indicates increase; “−” indicates decrease; “NC” indicates no change", "description": "(§1) Cell lines. Glioma cells: C6 cells were cultured in F-12K medium with 18% FBS. F98 cells and GL261 cells were cultured in DMEM with 10% FBS. Head and neck cancer: 22B cells were cultured in DMEM with 10% FBS. Papillary thyroid cancers: BHP2-7 cells and BHP18-21 cells were cultured in DMEM with 10% FBS. Small cell lung cancer: HTB184 cells were cultured in RPMI medium with 10% FBS. Breast cancers: MCF-7 cells were cultured in DMEM (w/o phenol red) with 5% FBS and MDA-MB cells were cultured in DMEM with 10% FBS. Colon cancer: Colo 205 cells were cultured in RPMI medium with 10% FBS. Ovarian cancer: OVCAR-3 cells were culture in RPMI medium with 20% FBS supplemented with insulin. Prostate cancers: LNCaP cells were cultured in RPMI medium with 10% FBS. DU145 cells were cultured in MEM with 10% FBS and PC3 cells were cultured in F-12 medium with 10% FBS. Cervical cancer: HeLa cells were cultured in MEM with 10% FBS. Melanoma cells were cultured in DMEM with 10% FBS. These conditions were determined to maintain cellular production of proliferating cell nuclear antigen (PCNA) at high levels immediately prior to study of AFP-related peptide. All cell cultures were maintained in a 5% CO2/95% O2 incubator at 37 C. Cell fractionation. Fractionation in a microfuge and preparation of nucleoproteins was by our previously reported methods (1-3). Nuclear extracts were prepared by resuspension of the crude nuclei in high salt buffer (hypotonic buffer with 420 mM NaCl and 20% glycerol) at 4° C. with rocking for 1 hr. The supernatants were collected after subsequent centrifugation at 4° C. and 13,000 rpm for 10 min. Immunoblotting. The techniques are standard and have been described in a number of our publications (1-3). In brief, nucleoproteins were separated on discontinuous SDS-PAGE and then transferred by electroblotting to nitocellulose membranes (Millipore, Bedford, Mass.). […] Immunoreactive proteins are detected by chemiluminescence."}, "[2]": {"test_system": "small cell lung cancer HTB 184 cells", "assay": "PCNA and nuclear ERα immunoblot, HTB 184", "type": "cell-based, human", "parameters": "key to Total Nuclear Estrogen Receptor / PCNA accumulation: “+” indicates increase; “−” indicates decrease; “NC” indicates no change", "description": "as §1"}, "[3]": {"test_system": "MCF-7 breast cancer cells", "assay": "PCNA and nuclear ERα immunoblot, MCF-7", "type": "cell-based, human", "parameters": "key to Total Nuclear Estrogen Receptor / PCNA accumulation: “+” indicates increase; “−” indicates decrease; “NC” indicates no change", "description": "as §1"}, "[4]": {"test_system": "LNCaP prostate carcinoma cells", "assay": "PCNA and nuclear ERα immunoblot, LNCaP", "type": "cell-based, human", "parameters": "key to Total Nuclear Estrogen Receptor / PCNA accumulation: “+” indicates increase; “−” indicates decrease; “NC” indicates no change", "description": "as §1"}, "[5]": {"test_system": "HeLa cervical cancer cells", "assay": "PCNA and nuclear ERα immunoblot, HeLa", "type": "cell-based", "parameters": "key to Total Nuclear Estrogen Receptor / PCNA accumulation: “+” indicates increase; “−” indicates decrease; “NC” indicates no change", "description": "as §1"}, "cancer cell lines": {"test_system": "cancer cell lines", "assay": "PCNA and nuclear ERα immunoblot, summary over cancer cell lines", "type": "cell-based", "conditions": "E2 1×10^−9 M", "description": "as §1"}, "melanoma cells": {"test_system": "melanoma cells", "assay": "PCNA and nuclear ERα immunoblot, melanoma", "type": "cell-based, human", "parameters": "key to Total Nuclear Estrogen Receptor / PCNA accumulation: “+” indicates increase; “−” indicates decrease; “NC” indicates no change", "description": "Cell lines. Glioma cells: C6 cells were cultured in F-12K medium with 18% FBS. F98 cells and GL261 cells were cultured in DMEM with 10% FBS. Head and neck cancer: 22B cells were cultured in DMEM with 10% FBS. Papillary thyroid cancers: BHP2-7 cells and BHP18-21 cells were cultured in DMEM with 10% FBS. Small cell lung cancer: HTB184 cells were cultured in RPMI medium with 10% FBS. Breast cancers: MCF-7 cells were cultured in DMEM (w/o phenol red) with 5% FBS and MDA-MB cells were cultured in DMEM with 10% FBS. Colon cancer: Colo 205 cells were cultured in RPMI medium with 10% FBS. Ovarian cancer: OVCAR-3 cells were culture in RPMI medium with 20% FBS supplemented with insulin. Prostate cancers: LNCaP cells were cultured in RPMI medium with 10% FBS. DU145 cells were cultured in MEM with 10% FBS and PC3 cells were cultured in F-12 medium with 10% FBS. Cervical cancer: HeLa cells were cultured in MEM with 10% FBS. Melanoma cells were cultured in DMEM with 10% FBS. These conditions were determined to maintain cellular production of proliferating cell nuclear antigen (PCNA) at high levels immediately prior to study of AFP-related peptide. All cell cultures were maintained in a 5% CO2/95% O2 incubator at 37 C. Cell fractionation. Fractionation in a microfuge and preparation of nucleoproteins was by our previously reported methods (1-3). Nuclear extracts were prepared by resuspension of the crude nuclei in high salt buffer (hypotonic buffer with 420 mM NaCl and 20% glycerol) at 4° C. with rocking for 1 hr. The supernatants were collected after subsequent centrifugation at 4° C. and 13,000 rpm for 10 min. Immunoblotting. The techniques are standard and have been described in a number of our publications (1-3). In brief, nucleoproteins were separated on discontinuous SDS-PAGE and then transferred by electroblotting to nitocellulose membranes (Millipore, Bedford, Mass.). After blocking with 5% milk in Tris-buffered saline containing 0.1% Tween, the membranes were incubated with either mouse anti-human PCNA (Santa Cruz Biotech., Santa Cruz, Calif.) or mouse anti-human ER antibody (Santa Cruz) overnight. Secondary antibody was rabbit anti-mouse IgG (1:1000)(Dako), depending upon the origin of the primary antibody. Immunoreactive proteins are detected by chemiluminescence."}, "[6]": {"test_system": "BHP 18-21 papillary thyroid cancer cells", "assay": "PCNA and nuclear ERα immunoblot, BHP 18-21", "type": "cell-based", "parameters": "key: “+” indicates increase; “−” indicates decrease; “NC” indicates no change", "description": "as §1, with “(1-3).” for “(1-3). Nuclear extracts were prepared by resuspension of the crude nuclei in high salt buffer (hypotonic buffer with 420 mM NaCl and 20% glycerol) at 4° C. with rocking for 1 hr. The supernatants were collected after subsequent centrifugation at 4° C. and 13,000 rpm for 10 min. Immunoblotting. The techniques are standard and have been described in a number of our publications (1-3). In brief, nucleoproteins were separated on discontinuous SDS-PAGE and then transferred by electroblotting to nitocellulose membranes (Millipore, Bedford, Mass.).”"}, "GL261 glioma cells": {"test_system": "GL261 glioma cells", "assay": "PCNA and nuclear ERα immunoblot, GL261", "type": "cell-based, murine", "parameters": "key to Total Nuclear Estrogen Receptor / PCNA accumulation: “+” indicates increase; “−” indicates decrease; “NC” indicates no change", "description": "as §1"}, "C6 glioma cells": {"test_system": "C6 glioma cells", "assay": "PCNA and nuclear ERα immunoblot, C6", "type": "cell-based, murine", "parameters": "key to Total Nuclear Estrogen Receptor / PCNA accumulation: “+” indicates increase; “−” indicates decrease; “NC” indicates no change", "description": "as §1"}, "[7]": {"test_system": "PC3 prostate carcinoma cells", "assay": "PCNA and nuclear ERα immunoblot, PC3", "type": "cell-based, human", "parameters": "key to Total Nuclear Estrogen Receptor / PCNA accumulation: “+” indicates increase; “−” indicates decrease; “NC” indicates no change", "description": "as §1"}, "[8]": {"test_system": "MDA-MB breast cancer cells", "assay": "PCNA and nuclear ERα immunoblot, MDA-MB", "type": "cell-based, human", "parameters": "key to Total Nuclear Estrogen Receptor / PCNA accumulation: “+” indicates increase; “−” indicates decrease; “NC” indicates no change", "description": "as §1"}, "[9]": {"test_system": "head and neck 22B cancer cells", "assay": "PCNA and nuclear ERα immunoblot, 22B", "type": "cell-based, human", "parameters": "key to Total Nuclear Estrogen Receptor / PCNA accumulation: “+” indicates increase; “−” indicates decrease; “NC” indicates no change", "description": "as §1"}, "[10]": {"conditions": "HTB 184 (Small Cell Lung Cancer)"}}, "data": [{"compound": "C[C@]12CC[C@@H]3c4ccc(O)cc4CC[C@H]3[C@@H]1CC[C@@H]2O", "note": "[E2, 17β-estradiol]", "values": [{"measurement": "PCNA accumulation", "setting": "[1]; Colo205 (Colon Cancer)", "result": "NC"}, {"measurement": "Total Nuclear Estrogen Receptor", "setting": "[1]; Colo205 (Colon Cancer)", "result": "NC"}, {"measurement": "nuclear ERα", "setting": "[1]; Colo 205, 10^−9 M E2 or 10^−7 M AFP-peptide, 24 h", "result": "did not increase nuclear accumulation of ER"}, {"measurement": "PCNA accumulation", "setting": "[2]; [10]", "result": "+"}, {"measurement": "Total Nuclear Estrogen Receptor", "setting": "[2]; [10]", "result": "+"}, {"measurement": "nuclear ERα", "setting": "[2]; HTB 184, 10^−9M E2 or 10^−6 M AFP-peptide, 24 h", "result": "increased nuclear ERα accumulation"}, {"measurement": "PCNA accumulation", "setting": "[3]; MCF-7 (Breast Cancer)", "result": "+"}, {"measurement": "Total Nuclear Estrogen Receptor", "setting": "[3]; MCF-7 (Breast Cancer)", "result": "+"}, {"measurement": "nuclear accumulation of activated ER (phosphoERα)", "setting": "[3]; MCF-7, 10^−9 M E2 or 10^−8 M AFP-peptide, 24 h", "result": "increased nuclear accumulation of activated ER (phosphoERα)"}, {"measurement": "PCNA accumulation", "setting": "[4]; LNCaP (Prostate Cancer)", "result": "+"}, {"measurement": "Total Nuclear Estrogen Receptor", "setting": "[4]; LNCaP (Prostate Cancer)", "result": "NC"}, {"measurement": "nuclear ERα", "setting": "[4]; LNCaP, 10^−9 M E2 or 10^−6 M AFP-peptide, 24 h", "result": "did not increase nuclear accumulation of ERα"}, {"measurement": "PCNA accumulation", "setting": "[5]; HeLa (Cervical Cancer)", "result": "+"}, {"measurement": "Total Nuclear Estrogen Receptor", "setting": "[5]; HeLa (Cervical Cancer)", "result": "+"}, {"measurement": "nuclear ERα", "setting": "[5]; HeLa, 10^−9M E2 or 10^−7 M AFP-peptide, 24 h", "result": "Neither E2 or AFP-peptide decreased nuclear accumulation of ERα"}, {"measurement": "total nuclear accumulation of ERα", "setting": "cancer cell lines; 24 hr, C6, F98, GL261, 22B, BHP 2-7, BHP 18-21, HTB 184, MCF-7 and HeLa cells", "result": "increased total nuclear accumulation of estrogen receptor-α (ERα)"}, {"measurement": "total nuclear ERα", "setting": "cancer cell lines; MDA-MB, Colo205, OVCAR-3, LNCaP, and PC3 cells", "result": "no significant change in total nuclear ERα"}, {"measurement": "total nuclear ERα", "setting": "cancer cell lines; melanoma cells", "result": "decreased the total nuclear ERα"}, {"measurement": "PCNA accumulation", "setting": "melanoma cells; Melanoma (Skin Cancer)", "result": "−"}, {"measurement": "Total Nuclear Estrogen Receptor", "setting": "melanoma cells; Melanoma (Skin Cancer)", "result": "−"}, {"measurement": "nuclear ERα", "setting": "melanoma cells; melanoma, 10^−9 M E2 or 10^−6M AFP-peptide, 24 h", "result": "decrease nuclear ERα accumulation"}, {"measurement": "PCNA accumulation", "setting": "melanoma cells; melanoma, AFP-peptide 10^−9 to 10^−7 M (left panel), 10^−9 M E2 or 10^−6M AFP-peptide (right panel), 24 h", "result": "reduce PCNA"}, {"measurement": "PCNA accumulation", "setting": "[6]", "result": "+"}, {"measurement": "Total Nuclear Estrogen Receptor", "setting": "[6]", "result": "+"}, {"measurement": "PCNA accumulation", "setting": "GL261 glioma cells; GL261 (Glioma)", "result": "−"}, {"measurement": "Total Nuclear Estrogen Receptor", "setting": "GL261 glioma cells; GL261 (Glioma)", "result": "+"}, {"measurement": "nuclear ERα", "setting": "GL261 glioma cells; GL261, 10^−9 M E2 or 10^−6 M AFP-peptide, 24 h", "result": "increased nuclear accumulation of ERα"}, {"measurement": "PCNA accumulation", "setting": "C6 glioma cells; C6 (Glioma)", "result": "+"}, {"measurement": "Total Nuclear Estrogen Receptor", "setting": "C6 glioma cells; C6 (Glioma)", "result": "+"}, {"measurement": "nuclear ERα", "setting": "C6 glioma cells; C6, 10^−9 M E2 or 10^−6 M AFP-peptide, 24 h", "result": "increased nuclear accumulation of ERα"}, {"measurement": "PCNA accumulation", "setting": "[7]; PC 3 (Prostate Cancer)", "result": "−"}, {"measurement": "Total Nuclear Estrogen Receptor", "setting": "[7]; PC 3 (Prostate Cancer)", "result": "NC"}, {"measurement": "nuclear ERα", "setting": "[7]; PC3, 10^−9 M E2 or 10^−6 M AFP-peptide, 24 h", "result": "did not increase nuclear accumulation of ERα"}, {"measurement": "PCNA accumulation", "setting": "[8]; MDA-MB (Breast Cancer)", "result": "NC"}, {"measurement": "Total Nuclear Estrogen Receptor", "setting": "[8]; MDA-MB (Breast Cancer)", "result": "NC"}, {"measurement": "nuclear ER", "setting": "[8]; MDA-MB, 10^−9 M E2 or 10^−6 M peptide, 24 h", "result": "no significant change in ER"}, {"measurement": "PCNA accumulation", "setting": "[9]; 22B (Head Neck Cancer)", "result": "+"}, {"measurement": "Total Nuclear Estrogen Receptor", "setting": "[9]; 22B (Head Neck Cancer)", "result": "+"}, {"measurement": "nuclear ERα", "setting": "[9]; 22B, 10^−9M E2 or 10^−7 M AFP-peptide, 24 h", "result": "increased nuclear accumulation of ERα"}]}]}
